Our source for the EC50, AC50 and IC50 values is ChEMBL document CHEMBL1201862, “PubChem BioAssay data set” (2004).

Calls of active or inactive are those of the source.

The target in experiment [1] is Peroxisome proliferator-activated receptor gamma/Nuclear receptor coactivator 1 (Homo sapiens, UniProt P37231). The format is functional.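 Note: agonist potency as compounds enhance coactivator SRC-1 recruitment to PPARgamma.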
Experiment [2] has as its target Peroxisome proliferator-activated receptor gamma/Nuclear receptor coactivator 2 (Homo sapiens, UniProt P37231). The format is functional.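 Note: agonist potency for raising coactivator recruitment to the receptor.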
In experiment [3] the target is Peroxisome proliferator-activated receptor gamma/Nuclear receptor coactivator 3 (Homo sapiens, UniProt P37231). The class given is functional.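 Note: agonist potency for raising coactivator recruitment to the receptor.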
Experiment [4] addresses Cytochrome P450 3A4 (Homo sapiens, UniProt P08684). The settings on record: Potency.
A short description of experiment [5]: viability loss of HPDE-C7K cells – cell-based, fluorescence, HTS, primary screen (AID 431). The format is functional. Conditions: Homo sapiens.
Experiment [6] can be described thus: HPDE-C7 pancreatic duct cell viability loss – fluorescence, HTS (AID 430). The format is functional, cell-based. The settings on record: Homo sapiens.
Experiment [7] has as its target Ion channel NompC (Danio rerio, UniProt Q7T1G6). Put plainly: Fluorescence counterscreen assay for TRPML3 agonists: dose response cell-based high-throughput screening assay to identify agonists of the transient receptor potential channel N1 (TRPN1). [Related pubchem assays: 1526, 1424, 1448 ]. The format is functional. In general terms: Counterscreens check selectivity or assay interference.

The target of experiment [8] is T1, Mucolipin-3 (Homo sapiens, UniProt Q8TDD5).
T1 sequence (Q8TDD5 whole entry): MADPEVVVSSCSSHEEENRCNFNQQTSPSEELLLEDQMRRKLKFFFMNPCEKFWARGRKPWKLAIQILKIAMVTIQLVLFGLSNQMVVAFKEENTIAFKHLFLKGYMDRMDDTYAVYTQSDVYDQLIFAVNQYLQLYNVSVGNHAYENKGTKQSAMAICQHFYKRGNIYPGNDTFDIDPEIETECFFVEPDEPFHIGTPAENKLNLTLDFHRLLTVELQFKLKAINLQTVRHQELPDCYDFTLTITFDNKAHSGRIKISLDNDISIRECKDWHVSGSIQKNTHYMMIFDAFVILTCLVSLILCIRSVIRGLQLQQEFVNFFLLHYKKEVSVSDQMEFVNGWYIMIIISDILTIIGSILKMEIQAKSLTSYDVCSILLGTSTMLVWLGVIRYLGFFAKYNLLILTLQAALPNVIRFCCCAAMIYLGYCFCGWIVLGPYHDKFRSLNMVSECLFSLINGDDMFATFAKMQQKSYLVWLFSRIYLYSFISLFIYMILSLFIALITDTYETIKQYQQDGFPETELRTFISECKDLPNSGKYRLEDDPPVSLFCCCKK
Put plainly: Dose response cell-based high-throughput screening assay for agonists of the transient receptor potential channel ML3 (TRPML3). [Related pubchem assays: 1526, 1424, 1448 ]. The format is functional.

Experiment [9] addresses DNA dC->dU-editing enzyme APOBEC-3A (Homo sapiens, UniProt P31941). Put plainly: Dose Response confirmation of small molecule APOBEC3A DNA Deaminase Inhibitors via a fluorescence-based single-stranded DNA deaminase assay. [Related pubchem assays (depositor defined):AID493011, AID493024]. The format is functional.
In experiment [10] the target is DNA dC->dU-editing enzyme APOBEC-3G (Homo sapiens, UniProt Q9HC16). The class given is functional.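 Note: Dose-response counterscreen measuring inhibition of APOBEC3G DNA deaminase activity, run while confirming APOBEC3A inhibitors.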
Experiment [11] can be described thus: fluconazole-exposed Candida albicans growth modulators – fluorescence, retest, confirmation (AID 2467). The format is functional, cell-based.
Experiment [12] in a line: Luminescence Cell-Based Dose Response HTS to Identify Inhibitors of 5'UTR Stem-Loop Driven Prion Protein mRNA Translation in H4 Neuroglioblastoma Cells. [Related pubchem assays: 1827 (Project Summary), 1813 (Primary HTS)]. The class given is functional.
Experiment [13] in a line: NIH-3T3 fibroblast cytotoxicity, dose response, cytotoxicity control, cell-based, fluorescence, Alamar Blue, secondary assay (AID 2327).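 Note: NIH-3T3 mouse fibroblasts cultured with fluconazole at 8 µg/mL.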 The format is functional. (Resazurin is reduced to fluorescent resorufin, in cell work by metabolically active cells.)
The nature of experiment [14]: luciferase reporter signal suppression in cells – H4 neuroglioma cells, luminescence, dose response (AID 1990). The class given is functional, cell-based. Background: A reporter such as luciferase makes a cellular process visible.
A short description of experiment [15]: alpha-synuclein stem-loop luciferase translation blockers – H4 neuroglioma cells, luminescence, confirmation (AID 1988). The class given is functional, cell-based.
Experiment [16] addresses Tumor necrosis factor (Homo sapiens, UniProt P01375). Put plainly: analog potency on TNFa NF-kB signaling – cell-based, revised, SAR follow-up (AID 2337). The class given is functional.
The subject of experiment [17] is HEK293. Put plainly: cells. The class given is functional, cell-based. Conditions: Homo sapiens.
The test system of experiment [18] is HEK293. Put plainly: NOD2 signaling inhibitors in MDP-stimulated cells, cell-based, uHTS, luminescence (AID 2001). The format is functional. The settings on record: Homo sapiens.
Experiment [19] concerns HEK293. Put plainly: cells. Conditions: Homo sapiens.
In experiment [20] the test system is HEK293. Put plainly: inhibition of NOD1-driven NF-kB reporter – cell-based, luminescence, uHTS, primary screen (AID 1578). The settings on record: Homo sapiens. The format is functional.
The subject of experiment [21] is HEK293. Put plainly: cells. The format is functional, cell-based. The settings on record: Homo sapiens. The source holds these as a separate data set.
In experiment [22] the target is T2, Nucleotide-binding oligomerization domain-containing protein 1 (Homo sapiens, UniProt Q9Y239).
T2 sequence (Q9Y239 whole entry): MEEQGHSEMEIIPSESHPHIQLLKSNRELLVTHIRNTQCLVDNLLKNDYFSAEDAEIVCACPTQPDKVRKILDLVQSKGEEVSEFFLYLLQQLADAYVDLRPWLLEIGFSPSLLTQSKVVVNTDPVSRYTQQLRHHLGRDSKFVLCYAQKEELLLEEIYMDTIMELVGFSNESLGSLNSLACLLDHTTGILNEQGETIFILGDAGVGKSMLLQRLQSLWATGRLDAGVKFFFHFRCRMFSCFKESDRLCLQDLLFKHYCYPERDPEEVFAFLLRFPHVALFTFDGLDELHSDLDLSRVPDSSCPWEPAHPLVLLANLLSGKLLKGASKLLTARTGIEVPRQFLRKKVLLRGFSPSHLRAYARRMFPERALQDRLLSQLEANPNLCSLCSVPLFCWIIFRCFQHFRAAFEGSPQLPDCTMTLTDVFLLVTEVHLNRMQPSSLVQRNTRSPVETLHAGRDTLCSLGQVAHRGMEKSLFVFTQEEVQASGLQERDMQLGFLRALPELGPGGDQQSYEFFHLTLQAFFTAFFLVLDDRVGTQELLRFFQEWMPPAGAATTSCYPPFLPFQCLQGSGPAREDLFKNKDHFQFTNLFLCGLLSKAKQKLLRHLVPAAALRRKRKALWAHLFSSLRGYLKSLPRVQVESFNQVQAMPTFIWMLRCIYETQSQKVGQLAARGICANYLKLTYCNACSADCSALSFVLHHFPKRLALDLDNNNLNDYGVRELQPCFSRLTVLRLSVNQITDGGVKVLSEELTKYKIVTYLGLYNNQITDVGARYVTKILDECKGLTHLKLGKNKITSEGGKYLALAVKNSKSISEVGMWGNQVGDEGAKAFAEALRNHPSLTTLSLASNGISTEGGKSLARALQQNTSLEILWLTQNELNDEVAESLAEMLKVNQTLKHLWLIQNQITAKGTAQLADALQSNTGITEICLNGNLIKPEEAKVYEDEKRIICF
Put plainly: blockers of NOD1 pathway activity – revised, SAR follow-up (AID 2333). The format is functional.

A short description of experiment [23]: non-specific 3'UTR reporter inhibition in Clone20-Shn3RL – cell-based, Renilla luciferase, cherry-picked, counter-screen for Shn3 inhibitor project, dose response (AID 624133). The class given is functional.
Experiment [24] in a line: reduction of Shn3 3'UTR-driven luciferase in osteoblasts – cell-based, Clone20 osteoblasts, firefly luciferase, cherry-picked, dose response (AID 624132).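 Note: firefly luciferase luminescence from reporter carrying the Shn3 3'UTR in osteoblasts.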 The format is functional.
Experiment [25] can be described thus: loss of viability in HepG2 cells – cell-based, CellTiter-Glo, cherry-picked, cytotoxicity control for Shn3 inhibitor project, dose response (AID 624134). The format is functional.

Tumor necrosis factor, sequence (P01375 whole entry): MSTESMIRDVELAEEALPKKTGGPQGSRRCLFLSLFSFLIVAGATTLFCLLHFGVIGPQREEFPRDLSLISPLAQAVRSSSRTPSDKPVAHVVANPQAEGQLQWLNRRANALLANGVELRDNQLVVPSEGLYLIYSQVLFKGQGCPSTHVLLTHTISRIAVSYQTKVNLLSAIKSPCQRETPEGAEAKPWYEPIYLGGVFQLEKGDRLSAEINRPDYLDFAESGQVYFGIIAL
Ion channel NompC, sequence (Q7T1G6 whole entry): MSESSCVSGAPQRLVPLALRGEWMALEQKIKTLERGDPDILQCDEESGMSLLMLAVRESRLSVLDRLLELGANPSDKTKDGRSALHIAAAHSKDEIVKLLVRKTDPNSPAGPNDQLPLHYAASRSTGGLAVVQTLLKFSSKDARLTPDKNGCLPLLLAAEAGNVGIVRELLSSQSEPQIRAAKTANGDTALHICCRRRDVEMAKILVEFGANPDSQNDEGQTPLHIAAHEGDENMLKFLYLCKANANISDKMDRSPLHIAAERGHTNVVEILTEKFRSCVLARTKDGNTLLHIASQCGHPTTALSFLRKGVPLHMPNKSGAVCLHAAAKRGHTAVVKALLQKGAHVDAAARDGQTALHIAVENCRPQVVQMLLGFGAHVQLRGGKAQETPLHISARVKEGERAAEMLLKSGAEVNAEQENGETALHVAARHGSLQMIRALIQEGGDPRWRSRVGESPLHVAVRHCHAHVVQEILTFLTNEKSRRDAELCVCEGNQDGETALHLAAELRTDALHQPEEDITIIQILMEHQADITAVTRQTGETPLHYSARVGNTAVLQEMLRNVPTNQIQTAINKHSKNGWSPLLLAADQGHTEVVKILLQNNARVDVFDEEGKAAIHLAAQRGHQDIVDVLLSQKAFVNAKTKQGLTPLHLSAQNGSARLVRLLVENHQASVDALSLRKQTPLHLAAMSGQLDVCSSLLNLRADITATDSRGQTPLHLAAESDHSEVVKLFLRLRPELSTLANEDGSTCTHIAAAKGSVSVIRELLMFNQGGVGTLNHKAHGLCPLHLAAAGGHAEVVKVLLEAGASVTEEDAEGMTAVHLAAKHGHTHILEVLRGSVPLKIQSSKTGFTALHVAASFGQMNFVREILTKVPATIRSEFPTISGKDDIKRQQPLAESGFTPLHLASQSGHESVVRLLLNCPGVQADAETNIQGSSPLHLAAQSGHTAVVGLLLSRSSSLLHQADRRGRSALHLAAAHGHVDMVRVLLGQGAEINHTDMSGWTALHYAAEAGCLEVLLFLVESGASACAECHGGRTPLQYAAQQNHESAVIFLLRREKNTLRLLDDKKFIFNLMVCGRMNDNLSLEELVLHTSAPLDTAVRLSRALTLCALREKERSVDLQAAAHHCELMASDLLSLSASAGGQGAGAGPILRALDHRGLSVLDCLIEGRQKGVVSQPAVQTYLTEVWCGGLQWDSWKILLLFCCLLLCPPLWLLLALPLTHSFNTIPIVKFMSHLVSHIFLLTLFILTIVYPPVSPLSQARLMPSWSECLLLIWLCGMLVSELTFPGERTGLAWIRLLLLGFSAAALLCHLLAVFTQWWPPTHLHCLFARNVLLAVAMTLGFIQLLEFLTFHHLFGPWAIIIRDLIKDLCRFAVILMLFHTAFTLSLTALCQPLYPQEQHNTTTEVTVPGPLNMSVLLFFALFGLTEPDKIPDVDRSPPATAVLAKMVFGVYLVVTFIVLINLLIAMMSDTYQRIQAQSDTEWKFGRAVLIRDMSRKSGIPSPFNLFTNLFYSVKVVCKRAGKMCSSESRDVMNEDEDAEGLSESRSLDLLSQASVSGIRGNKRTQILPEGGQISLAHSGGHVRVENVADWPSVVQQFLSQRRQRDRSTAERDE
DNA dC->dU-editing enzyme APOBEC-3A, sequence (P31941 whole entry): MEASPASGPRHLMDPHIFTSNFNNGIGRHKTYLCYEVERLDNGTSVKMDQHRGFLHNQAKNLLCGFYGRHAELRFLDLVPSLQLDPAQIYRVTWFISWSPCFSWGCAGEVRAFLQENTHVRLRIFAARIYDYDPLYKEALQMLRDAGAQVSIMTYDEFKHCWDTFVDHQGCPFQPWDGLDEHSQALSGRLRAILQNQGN
DNA dC->dU-editing enzyme APOBEC-3G, sequence (Q9HC16 whole entry): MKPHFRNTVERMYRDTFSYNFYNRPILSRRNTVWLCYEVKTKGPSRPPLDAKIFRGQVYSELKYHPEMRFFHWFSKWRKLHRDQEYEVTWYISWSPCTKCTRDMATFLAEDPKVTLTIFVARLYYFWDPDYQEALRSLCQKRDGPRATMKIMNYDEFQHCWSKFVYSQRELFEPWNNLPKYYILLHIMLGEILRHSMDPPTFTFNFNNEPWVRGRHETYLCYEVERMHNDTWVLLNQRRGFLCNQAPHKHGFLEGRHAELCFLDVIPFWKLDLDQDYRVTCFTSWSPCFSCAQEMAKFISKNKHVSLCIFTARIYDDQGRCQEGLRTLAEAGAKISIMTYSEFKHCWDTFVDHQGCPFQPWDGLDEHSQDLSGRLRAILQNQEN
Peroxisome proliferator-activated receptor gamma/Nuclear receptor coactivator 1, sequence (P37231 whole entry): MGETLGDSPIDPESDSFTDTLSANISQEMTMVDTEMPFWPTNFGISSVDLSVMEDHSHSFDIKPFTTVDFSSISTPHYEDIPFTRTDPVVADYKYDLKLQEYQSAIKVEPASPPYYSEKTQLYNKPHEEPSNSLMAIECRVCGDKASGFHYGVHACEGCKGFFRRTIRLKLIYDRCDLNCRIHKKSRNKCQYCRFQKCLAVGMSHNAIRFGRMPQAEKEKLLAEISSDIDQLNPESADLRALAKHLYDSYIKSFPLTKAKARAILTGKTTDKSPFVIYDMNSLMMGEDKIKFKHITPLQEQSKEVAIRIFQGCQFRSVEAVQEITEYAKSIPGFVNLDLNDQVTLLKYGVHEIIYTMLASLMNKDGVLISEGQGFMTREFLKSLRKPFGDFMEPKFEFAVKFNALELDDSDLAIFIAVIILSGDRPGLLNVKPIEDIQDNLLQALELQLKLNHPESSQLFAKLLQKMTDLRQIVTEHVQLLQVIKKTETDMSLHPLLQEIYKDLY
Peroxisome proliferator-activated receptor gamma/Nuclear receptor coactivator 1, sequence (Q15788 whole entry, further chain): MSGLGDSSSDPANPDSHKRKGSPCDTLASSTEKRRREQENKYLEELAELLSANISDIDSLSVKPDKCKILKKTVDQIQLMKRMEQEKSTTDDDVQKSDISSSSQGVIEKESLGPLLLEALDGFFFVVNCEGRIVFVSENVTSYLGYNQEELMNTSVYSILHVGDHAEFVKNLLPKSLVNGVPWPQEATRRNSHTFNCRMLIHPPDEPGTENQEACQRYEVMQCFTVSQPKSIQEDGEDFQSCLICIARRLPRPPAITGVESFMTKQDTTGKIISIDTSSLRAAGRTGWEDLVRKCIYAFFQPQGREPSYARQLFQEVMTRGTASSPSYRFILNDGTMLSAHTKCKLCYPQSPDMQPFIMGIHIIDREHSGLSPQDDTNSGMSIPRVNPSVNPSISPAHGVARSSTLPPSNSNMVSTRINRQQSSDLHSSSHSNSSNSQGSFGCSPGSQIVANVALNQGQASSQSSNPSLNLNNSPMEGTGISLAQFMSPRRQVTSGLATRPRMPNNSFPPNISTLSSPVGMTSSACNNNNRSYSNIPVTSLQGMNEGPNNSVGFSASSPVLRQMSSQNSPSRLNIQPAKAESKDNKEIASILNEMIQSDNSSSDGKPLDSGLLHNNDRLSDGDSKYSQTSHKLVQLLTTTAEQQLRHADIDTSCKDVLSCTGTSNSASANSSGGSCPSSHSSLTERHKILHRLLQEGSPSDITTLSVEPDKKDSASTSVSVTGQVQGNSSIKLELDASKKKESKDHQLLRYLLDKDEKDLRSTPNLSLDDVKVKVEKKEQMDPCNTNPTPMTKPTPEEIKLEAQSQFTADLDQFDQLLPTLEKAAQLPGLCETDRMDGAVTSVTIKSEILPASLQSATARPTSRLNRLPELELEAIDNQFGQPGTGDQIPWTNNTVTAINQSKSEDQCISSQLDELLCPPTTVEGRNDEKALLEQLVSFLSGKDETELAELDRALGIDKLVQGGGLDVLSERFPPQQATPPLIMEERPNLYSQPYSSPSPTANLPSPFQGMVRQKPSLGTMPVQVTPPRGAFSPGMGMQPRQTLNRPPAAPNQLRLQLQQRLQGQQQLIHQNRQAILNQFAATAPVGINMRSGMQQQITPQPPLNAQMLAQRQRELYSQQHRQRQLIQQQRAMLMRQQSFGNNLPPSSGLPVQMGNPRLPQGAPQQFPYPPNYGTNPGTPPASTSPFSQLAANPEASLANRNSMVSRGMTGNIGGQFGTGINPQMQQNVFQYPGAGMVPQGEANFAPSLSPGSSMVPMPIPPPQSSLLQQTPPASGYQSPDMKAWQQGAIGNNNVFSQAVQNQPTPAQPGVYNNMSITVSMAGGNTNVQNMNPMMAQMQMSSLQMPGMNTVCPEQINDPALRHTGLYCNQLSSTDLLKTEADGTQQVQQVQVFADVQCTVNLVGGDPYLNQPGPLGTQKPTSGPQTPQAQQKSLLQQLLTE
Cytochrome P450 3A4, sequence (P08684 whole entry): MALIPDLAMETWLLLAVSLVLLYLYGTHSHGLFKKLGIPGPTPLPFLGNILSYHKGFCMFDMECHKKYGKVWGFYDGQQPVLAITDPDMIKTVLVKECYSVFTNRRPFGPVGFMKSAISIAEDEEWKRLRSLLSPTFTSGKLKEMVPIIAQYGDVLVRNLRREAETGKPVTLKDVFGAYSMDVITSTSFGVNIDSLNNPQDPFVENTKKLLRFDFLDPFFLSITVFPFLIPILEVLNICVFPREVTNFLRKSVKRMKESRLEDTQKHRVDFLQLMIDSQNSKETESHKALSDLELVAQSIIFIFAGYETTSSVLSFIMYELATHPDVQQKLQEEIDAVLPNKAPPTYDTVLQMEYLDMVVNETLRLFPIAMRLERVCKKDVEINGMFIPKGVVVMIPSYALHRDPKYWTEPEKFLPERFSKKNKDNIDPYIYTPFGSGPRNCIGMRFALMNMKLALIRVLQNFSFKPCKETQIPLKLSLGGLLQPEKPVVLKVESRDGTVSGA

As to `CCCCC(CC)Cn1c2nc3ccccc3nc2c2c(=N)oc(C)nc21` (stereo not drawn), the figures for the EC50 in experiment [1], in [2] and in experiment [3] were > 79.4 µM (not active), > 79.4 µM (not active) and 84.3 µM (not active), respectively.

For the compound `CCC(=O)[C@]12O[C@@]3(C4C(=O)OCCC41)N(CC)C(C)=C(C(=O)OC)C(c1ccccc1)N3C2=O` (stereo partly drawn), the half-maximal activity concentration (AC50) (commonly the midpoint of the concentration-response curve, whichever way the signal moves) in experiment [4] is 5.01 µM (inconclusive).

Take `CC1CN(c2oc(COc3ccc(Cl)cc3Cl)nc2C#N)CC(C)O1` (stereo not drawn): the EC50 in [5] and in [6] was > 20 µM (not active) each time.

On to `Cc1ccc(S(=O)(=O)N2CCN(C)CC2)c(C)c1N(C)S(=O)(=O)c1ccc(Cl)cc1`, for which the concentration giving a half-maximal response (EC50) (usually the concentration giving half of the maximal effect) was > 29.9 µM (not active) in experiment [7] and 3.34 µM (active) in experiment [8].

As to `CN1CCN(CC(=O)Nc2sc3c(c2C(=O)Nc2ccccc2)CCCC3)CC1`, the IC50 (commonly the concentration needed to halve the response being measured) was 6.88 µM (active) in experiment [9] and 5.56 µM (active) in experiment [10].

As to `CCOc1ccc2c(c1)C(C)=CC(C)(C)N2S(=O)(=O)c1ccc(C)cc1`, the EC50 was > 29.9 µM (not active) in experiment [7]; > 38 µM (not active) in [11]; 0.147 µM (active) in experiment [12]; > 160 µM (inactive) in [13]; > 29.9 µM (not active) in experiment [8]; 1.36 µM (active) in experiment [14]. The 50% effective concentration (EC50) in experiment [15] was 0.497 µM (active).

`O=c1[nH]n(-c2ccccc2)c(=O)c2ccccc12`: the concentration for a half-maximal effect (EC50) in experiment [1], in [2] and in experiment [3] was > 79.4 µM (not active) each time.

Regarding `CCN1C[C@@]2(C)CC[C@@H](OC)[C@@]34C2C(O)[C@@]2(OCO[C@]25CC(OC)C2C[C@@]3(O)C5C2O)C14` (stereo partly drawn), the AC50 in [4] was 39.8 µM (inconclusive).

In the case of `COC(C)C(O)(C(=O)OC1=CCN2CC[C@H](O)[C@H]12)C(C)C` (stereo partly drawn), in experiment [4], the AC50 was 50.1 µM (inconclusive).

`O=S(=O)(Cc1cc(Cl)nc(-c2ccccc2)n1)c1ccccc1`: the half-maximal effective concentration (EC50) in experiment [7] was > 29.9 µM (not active); in experiment [8] it was 5.36 µM (active).

Turning to `CN(Cc1ccc(F)cc1)S(=O)(=O)c1nnc(NC(=O)c2ccccc2)s1`, the IC50 in [16] is 15.1 µM (active); in experiment [17] it was > 20 µM (inactive); in [18] it was 16.7 µM (inactive); in experiment [19] it was > 20 µM (inactive); in experiment [21], > 20 µM (inactive); in experiment [22], 11.1 µM (active). Also, in experiment [20], the half-maximal effective concentration (EC50) was 3.08 µM (active).

Regarding `CCN1C(N(C)CCc2cccs2)=N[C@@H](c2ccccc2)C(C(=O)OC)=C1C`, the IC50 in [9] is 6.31 µM (active); in experiment [10], 8.2 µM (active).

Take `COc1ccc(CNc2ncnc3sccc23)cc1OC`: the AC50 was 5.11 µM (active) in [23], 2.34 µM (active) in [24] and 68.3 µM (active) in [25]. Further, the IC50 is 13 µM (active) in [16]; 17.4 µM (active) in experiment [17]; > 20 µM (inactive) in experiment [18]; > 20 µM (inactive) in [19]; > 20 µM (inactive) in experiment [21]; 9.64 µM (active) in experiment [22]. The EC50 in experiment [20] is 5.37 µM (active).

For `Cc1nc(CN(C)C(=O)c2cc(COc3ccc4ncccc4c3)on2)cs1`, the IC50 is > 20 µM (inactive) in experiment [16]; 7.67 µM (active) in experiment [17]; 14.3 µM (inactive) in experiment [18]; > 20 µM (inactive) in experiment [19]; > 20 µM (inactive) in [21]; > 20 µM (inactive) in experiment [22]. For the same compound, the EC50 in experiment [20] is 2.75 µM (active).

Regarding `CCCS(=O)(=O)N1CCC(C(=O)NCCc2ccccc2)CC1`, the EC50 in experiment [5] and in [6] was > 20 µM (not active) in each case.

Take `Cc1c(NC(=O)c2nc[nH]n2)cccc1-c1nc2ccccc2s1`: the IC50 was 1.58 µM (active) in [9] and 2.54 µM (active) in [10].

`CSCCNC(C)=O`: the EC50 in experiment [1], in experiment [2] and in [3] was > 79.4 µM (not active) throughout.

Consider `CCOC(=O)C1=C(NC(=S)NC(=O)c2ccccc2)c2ccccc2CC1(C)C`, for which the concentration giving a half-maximal response (EC50) is > 29.9 µM (not active) in experiment [7] and 5.5 µM (active) in [8].

As to `CCc1n(CC(O)COCC2CC=CCC2)c2ccccc2[n+]1C` (stereo not drawn), the IC50 in [9] was 1.93 µM (active); in experiment [10], 3.7 µM (active).

On to `COc1ccc(N(Cc2cc3cc(OC)ccc3nc2O)S(C)(=O)=O)cc1`, for which the EC50 in experiment [5] and in [6] was > 20 µM (not active) each time.
